Laboratory results published in patent US20260315476A1, “COMBINATION TREATMENT METHODS FOR CANCER WITH TP53 MUTATION” (HO'OLA THERAPEUTICS INC., priority 2022, published 2026).
Where two headings read alike, the source gives them in different places.

How the values were obtained:
[1] = tested on: chronic lymphocytic leukemia (CLL); experiment: Clinical response rates in CLL (Phase 1/2 study, Parts 1 & 2 and Part 3); type: in vivo, human
Method: (§1) In Phase 1 study (Part 1), patients with relapsed/refractory (R/R) mantle cell lymphoma (MCL) and R/R chronic lymphocytic leukemia/small lymphocytic lymphoma (CLL/SLL) were enrolled (CLL n=18, MCL n=12). 2, 4, 8, and 16 mg/kg and 300 mg and 600 mg doses of zilovertamab (formerly known as cirmtuzumab) were evaluated. Ibrutinib was added to the treatment after 1 month at dose of 420 mg for CLL, 560 mg for MCL. The recommended dosing regime was 600 mg of zilovertamab (i.v.) once every 2 weeks by three times and then once every 4 weeks in combination with ibrutinib at approved doses per indication (i.e., 420 mg for CLL, 560 mg for MCL).
(§2) In Phase 2 study, patients were divided into two study groups. In study group 1 (Part 2), patients with R/R CLL, R/R MCL, and marginal zone lymphoma (MZL) were enrolled (CLL n=16, MCL n=21). The patients were treated with the recommended dosing regimen from Phase 1 study, that is, zilovertamab (600 mg) and ibrutinib at approved dose (420 mg CLL, 560 mg MCL and MZL). In study group 2 (Part 3), patients with R/R CLL (n=31) were enrolled and randomly treated with either zilovertamab in combination with ibrutinib or ibrutinib alone.

[2] = tested on: mantle cell lymphoma (MCL); experiment: Overall survival in MCL; type: in vivo, human; settings: MCL patients
Method: as §1, §2

[3] = tested on: chronic lymphocytic leukemia (CLL); experiment: Overall survival in CLL; type: in vivo, human; settings: CLL patients
Method: as §1, §2

[4] = Treatment emergent adverse events, CLL Part 3; type: in vivo, human
Method: as §2

[5] = Patient disposition and overall tolerability; type: in vivo, human; settings: CLL Part 3
Method: as §1, §2

[6] = tested on: mantle cell lymphoma (MCL); settings: historical, cited from earlier work
[7] = tested on: chronic lymphocytic leukemia (CLL); experiment: Clinical response rates in CLL (Phase 1/2 study, Parts 1 & 2 and Part 3); type: in vivo, human; settings: Part 3, TN
[8] = tested on: mantle cell lymphoma (MCL); settings: historical, cited from earlier work; remark: listed apart in the source
[9] = tested on: chronic lymphocytic leukemia (CLL); settings: Byrd 2019, cited from earlier work
[10] = tested on: mantle cell lymphoma (MCL); settings: MCL Rule 2017, Relapsed/Refractory, N = 370; cited from earlier work
[11] = MCL patients treated with BTKi (e.g., ibrutinib) alone; cited from earlier work
[12] = Rule 2019, No p53 mutation, N = 124
[13] = Rule 2019, p53 mutation, N = 20

C=CC(=O)N1CCC[C@@H](n2nc(-c3ccc(Oc4ccccc4)cc3)c3c(N)ncnc32)C1 [ibrutinib, 1-[(3R)-3[4-Amino-3-(4-phenoxyphenyl)-1H-pyrazolo[3,4-d]pyrimidin-1-yl]piperidin-1-yl]prop-2-en-1-one]
Complete Response (CR) ([1]; CLL Part 3): 1 (14.3) n (%)
Median Duration of response (95% CI) ([1]; CLL Part 3): NR (8.3, NE)
Overall Response Rate (ORR) ([1]; CLL Part 3): 7 (100.0) n (%)
Partial Response (PR) ([1]; CLL Part 3): 6 (85.7) n (%)
CR ([1]; Part 3, 1 Prior): 0 n
PD ([1]; Part 3, 1 Prior): 0 n
PD ([1]; Part 3, Overall): 0 n
CR ([1]; Part 3, ≥3 Prior): 0 n
Median DoR ([1]; Part 3, ≥3 Prior): 8.3 months
PD ([1]; Part 3, ≥3 Prior): 0 n
median OS [2]: not reached
median OS [3]: not reached
Atrial Fibrillation, Grades 1-2 [4]: 1 (10.0) n (%)
Atrial Fibrillation, Grades ≥3 [4]: 1 (10.0) n (%)
Atrial Fibrillation, Overall [4]: 2 (20.0) n (%)
Back pain, Grades 1-2 [4]: 2 (20.0) n (%)
Back pain, Grades ≥3 [4]: 0 n (%)
Back pain, Overall [4]: 2 (20.0) n (%)
Constipation, Grades 1-2 [4]: 3 (30.0) n (%)
Constipation, Grades ≥3 [4]: 0 n (%)
Constipation, Overall [4]: 3 (30.0) n (%)
Contusion, Grades 1-2 [4]: 3 (30.0) n (%)
Contusion, Grades ≥3 [4]: 0 n (%)
Contusion, Overall [4]: 3 (30.0) n (%)
Coronavirus Infection, Grades 1-2 [4]: 1 (10.0) n (%)
Coronavirus Infection, Grades ≥3 [4]: 1 (10.0) n (%)
Coronavirus Infection, Overall [4]: 2 (20.0) n (%)
Diarrhea, Grades 1-2 [4]: 4 (40.0) n (%)
Diarrhea, Grades ≥3 [4]: 0 n (%)
Diarrhea, Overall [4]: 4 (40.0) n (%)
Dizziness, Grades 1-2 [4]: 3 (30.0) n (%)
Dizziness, Grades ≥3 [4]: 0 n (%)
Dizziness, Overall [4]: 3 (30.0) n (%)
Fall, Grades 1-2 [4]: 2 (20.0) n (%)
Fall, Grades ≥3 [4]: 0 n (%)
Fall, Overall [4]: 2 (20.0) n (%)
Fatigue, Grades 1-2 [4]: 2 (20.0) n (%)
Fatigue, Grades ≥3 [4]: 0 n (%)
Fatigue, Overall [4]: 2 (20.0) n (%)
Headache, Grades 1-2 [4]: 3 (30.0) n (%)
Headache, Grades ≥3 [4]: 1 (10.0) n (%)
Headache, Overall [4]: 4 (40.0) n (%)
Hematuria, Grades 1-2 [4]: 3 (30.0) n (%)
Hematuria, Grades ≥3 [4]: 0 n (%)
Hematuria, Overall [4]: 3 (30.0) n (%)
Hemoglobin decrease, Grades 1-2 [4]: 6 (60.0) n (%)
Hemoglobin decrease, Grades ≥3 [4]: 1 (10.0) n (%)
Hemoglobin decrease, Overall [4]: 7 (70.0) n (%)
Hypertension, Grades 1-2 [4]: 1 (10.0) n (%)
Hypertension, Grades ≥3 [4]: 1 (10.0) n (%)
Hypertension, Overall [4]: 2 (20.0) n (%)
Muscle spasms, Grades 1-2 [4]: 2 (20.0) n (%)
Muscle spasms, Grades ≥3 [4]: 0 n (%)
Muscle spasms, Overall [4]: 2 (20.0) n (%)
Nausea, Grades 1-2 [4]: 3 (30.0) n (%)
Nausea, Grades ≥3 [4]: 0 n (%)
Nausea, Overall [4]: 3 (30.0) n (%)
Neutrophils decrease, Grades 1-2 [4]: 1 (10.0) n (%)
Neutrophils decrease, Grades ≥3 [4]: 2 (20.0) n (%)
Neutrophils decrease, Overall [4]: 3 (30.0) n (%)
Platelets decrease, Grades 1-2 [4]: 7 (70.0) n (%)
Platelets decrease, Grades ≥3 [4]: 1 (10.0) n (%)
Platelets decrease, Overall [4]: 8 (80.0) n (%)
Pneumonia, Grades 1-2 [4]: 0 n (%)
Pneumonia, Grades ≥3 [4]: 2 (20.0) n (%)
Pneumonia, Overall [4]: 2 (20.0) n (%)
Pruritis, Grades 1-2 [4]: 2 (20.0) n (%)
Pruritis, Grades ≥3 [4]: 0 n (%)
Pruritis, Overall [4]: 2 (20.0) n (%)
Upper respiratory tract infection, Grades 1-2 [4]: 3 (30.0) n (%)
Upper respiratory tract infection, Grades ≥3 [4]: 0 n (%)
Upper respiratory tract infection, Overall [4]: 3 (30.0) n (%)
Study discontinuation: Death [5]: 0 n
CR ([6]; Rule 2017, N = 370): 74 (20.0) n (%)
ORR ([6]; Rule 2017, N = 370): 234 (63.2) n (%)
PD ([6]; Rule 2017, N = 370): 86 (23.2) n (%)
CR [6, 12]: 31 (25.0) n (%)
ORR [6, 12]: 87 (70.2) n (%)
PR [6, 12]: 56 (45.2) n (%)
CR [6, 13]: 0 n (%)
ORR [6, 13]: 11 (55.0) n (%)
PR [6, 13]: 11 (55.0) n (%)
CR [7]: 0 n
PD [7]: 0 n
M PFS (95% CI) ([8]; Rule 2019, No p53 Mutation): 12.0 (7.1, 15.6)
M PFS (95% CI) ([8]; Rule 2019, p53 Mutation): 4.0 (2.1, 8.3)
Landmark PFS ([9]; 24 months, 1 or 2 prior systemic therapies): ~82%
Landmark PFS ([9]; 24 months, >2 prior systemic therapies): ~65%
Landmark PFS ([9]; 36 months, 1 or 2 prior systemic therapies): ~73%
Landmark PFS ([9]; 36 months, >2 prior systemic therapies): ~50%
median OS [10]: 25.0
Grade 3 or 4 neutrophil decrease [11]: 29%
